Values joined by “and” are separate entries in the source; they are usually repeats but may differ in a detail not shown here. Identical values can stand only once. Toxic doses and inconclusive results are not listed. The calls were made as follows: active = survival T/C of 150% or more; inactive = T/C below 125% in these data.
System: P388 leukemia ip, CD2F1 mice, survival T/C
Assay: NCI In Vivo Anticancer Drug Screen. Data for tumor model P388 Leukemia (intraperitoneal) in CD2F1 (CDF1) mice
Conditions: endpoint: median survival time, higher = longer survival
Outline: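 Mice carrying the transplanted tumor received test compound or vehicle. Survival was recorded in each group, and the value is the treated-group measurement divided by that of the vehicle-treated control group.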

[1] = dose: 60.0 mg/kg/injection, schedule: Q01DX005 (ip), vehicle: saline with Tween-80
[2] = dose: 120.0 mg/kg/injection, schedule: Q01DX005 (ip), vehicle: saline with Tween-80
[3] = dose: 240.0 mg/kg/injection, schedule: Q01DX005 (ip), vehicle: saline with Tween-80
[4] = dose: 100.0 mg/kg/injection, schedule: Q04DX002 (ip), vehicle: saline with Tween-80
[5] = dose: 200.0 mg/kg/injection, schedule: Q04DX002 (ip), vehicle: saline with Tween-80
[6] = dose: 400.0 mg/kg/injection, schedule: Q04DX002 (ip), vehicle: saline with Tween-80

Measured: T/C

Cc1ccc2nc3cc(N)ccc3c(-c3ccc(N)cc3)c2c1
inactive: dose: 50.0 mg/kg/injection, schedule: Q01DX005 (ip), vehicle: Klucel (hydroxypropylcellulose) (HPC) 97 % of control | dose: 100.0 mg/kg/injection, schedule: Q01DX005 (ip), vehicle: Klucel (hydroxypropylcellulose) (HPC) 102 % of control | dose: 200.0 mg/kg/injection, schedule: Q01DX005 (ip), vehicle: Klucel (hydroxypropylcellulose) (HPC) 97 % of control

CCCCCCCCC(=O)OCCNC(=O)C(C)OC(=O)CCCCCCCC (stereo not given)
inactive: dose: 100.0 mg/kg/injection, schedule: Q01DX009 (ip), vehicle: Klucel (hydroxypropylcellulose) (HPC) 96 % of control | dose: 200.0 mg/kg/injection, schedule: Q01DX009 (ip), vehicle: Klucel (hydroxypropylcellulose) (HPC) 100 % of control | dose: 400.0 mg/kg/injection, schedule: Q01DX009 (ip), vehicle: Klucel (hydroxypropylcellulose) (HPC) 98 % of control

O=C(CCC(=O)Nc1cc(Cl)ccc1Cl)CC(=O)c1ccc([N+](=O)[O-])cc1
inactive: [1] 98 % of control | [2] 100 % of control | [3] 109 % of control

CN(C)c1ccc(/C=N/NC(=O)C(O)(c2ccccc2)c2ccccc2)cc1
inactive: [1] 102 % of control | [2] 102 % of control | [3] 96 % of control

CN(CCCCCC(=O)O)c1ccncc1
inactive: dose: 50.0 mg/kg/injection, schedule: Q01DX005 (ip), vehicle: saline 103 % of control | dose: 100.0 mg/kg/injection, schedule: Q01DX005 (ip), vehicle: saline 100 % of control | dose: 200.0 mg/kg/injection, schedule: Q01DX005 (ip), vehicle: saline 108 % of control

C=CCCCC1(c2ccccc2)C(=O)Oc2ccccc21 (stereo not given)
inactive: dose: 50.0 mg/kg/injection, schedule: Q01DX005 (ip), vehicle: saline with Tween-80 98 % of control | dose: 100.0 mg/kg/injection, schedule: Q01DX005 (ip), vehicle: saline with Tween-80 89 % of control | dose: 200.0 mg/kg/injection, schedule: Q01DX005 (ip), vehicle: saline with Tween-80 90 % of control

CCc1nc(N)nc(N)c1-c1ccc(N2CCCCC2)c([N+](=O)[O-])c1
inactive: dose: 3.13 mg/kg/injection, schedule: Q01DX009 (ip), vehicle: distilled water + Tween-80 104 % of control | dose: 6.25 mg/kg/injection, schedule: Q01DX009 (ip), vehicle: distilled water + Tween-80 99 % of control | dose: 12.5 mg/kg/injection, schedule: Q01DX009 (ip), vehicle: distilled water + Tween-80 95 % of control | dose: 25.0 mg/kg/injection, schedule: Q01DX009 (ip), vehicle: distilled water + Tween-80 95 % of control | dose: 50.0 mg/kg/injection, schedule: Q01DX009 (ip), vehicle: distilled water + Tween-80 99 % of control and 90 % of control and 92 % of control | dose: 100.0 mg/kg/injection, schedule: Q01DX009 (ip), vehicle: distilled water + Tween-80 107 % of control and 86 % of control | dose: 200.0 mg/kg/injection, schedule: Q01DX009 (ip), vehicle: distilled water + Tween-80 90 % of control

Nc1cn(C2CC(O)C(CO)O2)c(=O)[nH]c1=O (stereo not given)
inactive: dose: 25.0 mg/kg/injection, schedule: Q01DX009 (ip), vehicle: saline 106 % of control | dose: 50.0 mg/kg/injection, schedule: Q01DX009 (ip), vehicle: saline 105 % of control | dose: 100.0 mg/kg/injection, schedule: Q01DX009 (ip), vehicle: saline 105 % of control | dose: 200.0 mg/kg/injection, schedule: Q01DX009 (ip), vehicle: saline 105 % of control

BrC1=CC(Br)=C2N=C(C(Br)(Br)Br)N=C3N=C(C(Br)(Br)Br)N=C1N32
inactive: dose: 15.0 mg/kg/injection, schedule: Q01DX005 (ip), vehicle: Klucel + Tween-80 106 % of control | dose: 30.0 mg/kg/injection, schedule: Q01DX005 (ip), vehicle: Klucel + Tween-80 109 % of control | dose: 60.0 mg/kg/injection, schedule: Q01DX005 (ip), vehicle: Klucel + Tween-80 103 % of control and 110 % of control

O=c1c2[nH]c3ccccc3sc=2c(=O)n1-c1ccc(Cl)c(Cl)c1Cl
inactive: [4] 100 % of control | [5] 97 % of control | [6] 100 % of control

Cc1cc(NCCCCCCCCNc2cc(C)nc3cc(N)ccc23)c2ccc(N)cc2n1
inactive: dose: 0.78 mg/kg/injection, schedule: Q01DX009 (ip), vehicle: water 119 % of control | dose: 1.56 mg/kg/injection, schedule: Q01DX009 (ip), vehicle: water 123 % of control

CCOCC(=O)C1(O)Cc2c(O)c3c(c(O)c2C(O)C1)C(=O)c1c(OC)cccc1C3=O (stereo not given)
inactive: dose: 1.56 mg/kg/injection, schedule: Q01DX009 (ip), vehicle: other 101 % of control | dose: 3.13 mg/kg/injection, schedule: Q01DX009 (ip), vehicle: other 100 % of control | dose: 6.25 mg/kg/injection, schedule: Q01DX009 (ip), vehicle: other 100 % of control | dose: 12.5 mg/kg/injection, schedule: Q01DX009 (ip), vehicle: other 95 % of control | dose: 25.0 mg/kg/injection, schedule: Q01DX009 (ip), vehicle: other 103 % of control

CC(=O)CC(=O)N/N=C(N)/C(C#N)=N/N(C)c1ccccc1
inactive: [4] 97 % of control | [5] 94 % of control | [6] 96 % of control

Source: PubChem BioAssay AID330 (DTP/NCI, 2004)
